For 19 molecules, IC50 results are on record in US9656988B2 (Pharmacyclics LLC, priority 2013, dated 2017).

Like-named read-outs stand apart in the source and are kept apart here.

The assay addresses BTK (Homo sapiens (Human), UniProt Q06187). In words: Btk in vitro inhibitory activity (one of Method A TR-FRET, Method B electrophoretic mobility shift, Method C radiometric filter binding). The format is biochemical. (In EMSA bound probe runs differently from free probe, usually more slowly.)
Where [1] appears, read: determined using one of the methods of Example 355a, 355b and 355c, read-out: BTK IC50.

Sequence of BTK (Q06187 whole entry): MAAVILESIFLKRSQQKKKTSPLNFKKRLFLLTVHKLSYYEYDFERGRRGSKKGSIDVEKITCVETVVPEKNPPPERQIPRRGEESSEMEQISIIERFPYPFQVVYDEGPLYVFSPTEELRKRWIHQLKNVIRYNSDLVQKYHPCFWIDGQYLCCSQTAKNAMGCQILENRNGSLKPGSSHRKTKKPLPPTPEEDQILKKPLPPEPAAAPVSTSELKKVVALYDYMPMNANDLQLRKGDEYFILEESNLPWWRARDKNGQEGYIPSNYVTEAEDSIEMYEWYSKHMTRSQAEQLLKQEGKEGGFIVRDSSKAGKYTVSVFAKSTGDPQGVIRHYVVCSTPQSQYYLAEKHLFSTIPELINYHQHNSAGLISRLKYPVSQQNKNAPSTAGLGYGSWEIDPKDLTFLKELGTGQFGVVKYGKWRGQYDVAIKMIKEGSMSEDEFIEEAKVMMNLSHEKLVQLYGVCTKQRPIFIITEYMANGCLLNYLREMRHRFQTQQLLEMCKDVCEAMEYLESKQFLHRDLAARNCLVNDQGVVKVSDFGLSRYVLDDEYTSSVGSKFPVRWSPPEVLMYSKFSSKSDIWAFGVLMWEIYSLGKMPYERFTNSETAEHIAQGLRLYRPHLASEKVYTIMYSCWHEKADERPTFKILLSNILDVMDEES

For the molecule `CN(C)C(=O)N[C@@H]1CCCN(c2cnc(C(N)=O)c(Nc3ccc(C4CCN(C(=O)CC#N)CC4)cc3)n2)C1` [Example 153, (R)-3-(4-(1-(2-cyanoacetyl)piperidin-4-yl)phenylamino)-5-(3-(3,3-dimethylureido)piperidin-1-yl)pyrazine-2-carboxamide], the IC50 (usually the concentration at which inhibition is half-maximal) under setting [1] was under 10 nM and the IC50 (read-out: Btk (IC50)) is under 10 nM.

On to `CN1CCC(c2ccc(Nc3nc(N4CCC[C@@H](NC(=O)N5CCCCC5)C4)cnc3C(N)=O)cc2)CC1` [Example 147, (R)-3-(4-(1-methylpiperidin-4-yl)phenylamino)-5-(3-(piperidine-1-carboxamido)piperidin-1-yl)pyrazine-2-carboxamide], for which the IC50 runs as follows: under setting [1], under 10 nM; (read-out: Btk (IC50)) under 10 nM.

For `CN1CCN([C@@H]2CCCN(c3cnc(C(N)=O)c(Nc4ccc(C5(C)CCN(C(=O)C6CC6)CC5)cc4)n3)C2)C1=O` [Example 270, (R)-3-(4-(1-(cyclopropanecarbonyl)-4-methylpiperidin-4-yl)phenylamino)-5-(3-(3-methyl-2-oxoimidazolidin-1-yl)piperidin-1-yl)pyrazine-2-carboxamide], the IC50 was under 10 nM under setting [1] and under 10 nM (read-out: Btk (IC50)).

Regarding `COc1ccc(C(=O)N[C@@H]2CCCN(c3cnc(C(N)=O)c(Nc4ccc(-n5ccccc5=O)cc4)n3)C2)cc1` [Example 127, (R)-5-(3-(4-methoxybenzamido)piperidin-1-yl)-3-(4-(2-oxopyridin-1(2H)-yl)phenylamino)pyrazine-2-carboxamide], the IC50 was 10 to 100 nM under setting [1] and 10 to 100 nM (read-out: Btk (IC50)).

Consider `NC(=O)c1nnc(N2CCC[C@@H](NC(=O)c3ccncc3)C2)nc1Nc1ccc(C(=O)N2CCOCC2)cc1` [Example 14, (R)-3-(3-(isonicotinamido)piperidin-1-yl)-5-(4-(morpholine-4-carbonyl)phenylamino)-1,2,4-triazine-6-carboxamide], for which, under setting [1], the IC50 is under 10 nM.

Consider `CCC(=O)N1CCC(C)(c2ccc(Nc3nc(N4CCC[C@@H](N5CCN(C)C5=O)[C@H]4C)cnc3C(N)=O)cc2)CC1` [Example 255, 3-(4-(4-methyl-1-propionylpiperidin-4-yl)phenylamino)-5-((2R,3R)-2-methyl-3-(3-methyl-2-oxoimidazolidin-1-yl)piperidin-1-yl)pyrazine-2-carboxamide], for which the IC50 runs as follows: under setting [1], under 10 nM; (read-out: Btk (IC50)) under 10 nM.

Turning to `CN(C)C/C=C/C(=O)N1CCC[C@@H](Nc2nnc(C(N)=O)c(Nc3ccc(S(C)(=O)=O)cc3)n2)C1` [Example 106, (R,E)-3-(1-(4-(dimethylamino)but-2-enoyl)piperidin-3-ylamino)-5-(4-(methylsulfonyl)phenylamino)-1,2,4-triazine-6-carboxamide], the IC50 under setting [1] was under 10 nM.

Take `NC(=O)c1ncc(N2CCC[C@@H](NC(=O)c3cc4c(s3)CCCC4)C2)nc1Nc1ccc(C2CCN(C3CC3)CC2)cc1` [Example 316, (R)-3-(4-(1-cyclopropylpiperidin-4-yl)phenylamino)-5-(3-(4,5,6,7-tetrahydrobenzo[b]thiophene-2-carboxamido)piperidin-1-yl)pyrazine-2-carboxamide]: under setting [1], the IC50 is under 10 nM.

Turning to `CC(C)N1CCC(C)(c2ccc(Nc3nc(N4CCC[C@@H](N5CCN(C)C5=O)C4)cnc3C(N)=O)cc2)CC1` [Example 264, (R)-3-(4-(1-isopropyl-4-methylpiperidin-4-yl)phenylamino)-5-(3-(3-methyl-2-oxoimidazolidin-1-yl)piperidin-1-yl)pyrazine-2-carboxamide], the IC50 (read-out: Btk (IC50)) was under 10 nM.

Consider `CCC(=O)N1CCC(c2ccc(Nc3nc(N4CCC[C@@H](N(C)C(=O)N(C)C)C4)cnc3C(N)=O)cc2)CC1` [Example 227, (R)-3-(4-(1-propionylpiperidin-4-yl)phenylamino)-5-(3-(1,3,3-trimethylureido)piperidin-1-yl)pyrazine-2-carboxamide], for which the IC50 was in the range of 10 to 100 nM (Btk (IC50)) and 10 to 100 nM under setting [1].

Turning to `CN(C)C(=O)N[C@@H]1CCCN(c2cnc(C(N)=O)c(Nc3ccc(C4CCN(S(C)(=O)=O)CC4)cc3)n2)C1` [Example 172, (R)-5-(3-(3,3-dimethylureido)piperidin-1-yl)-3-(4-(1-(methylsulfonyl)piperidin-4-yl)phenylamino)pyrazine-2-carboxamide], the 50% inhibitory concentration (IC50) runs as follows: under setting [1], under 10 nM; (read-out: Btk (IC50)) under 10 nM.

In the case of `CC(C)OC(=O)NN(C(=O)OC(C)C)[C@@H]1CCCN(c2nnc(C(N)=O)c(Nc3ccc(C(=O)N4CCOCC4)cc3)n2)C1` [Example 46, (R)-diisopropyl 1-(1-(6-carbamoyl-5-(4-(morpholine-4-carbonyl)phenylamino)-1,2,4-triazin-3-yl)piperidin-3-yl)hydrazine-1,2-dicarboxylate], the IC50 under setting [1] is 10 to 100 nM.

In the case of `CN(C)C(=O)N[C@@H]1CCCN(c2nnc(C(N)=O)c(Nc3ccc(C(=O)N4CCOCC4)cc3)n2)C1` [Example 81, (R)-3-(3-(3,3-dimethylureido)piperidin-1-yl)-5-(4-(morpholine-4-carbonyl)phenylamino)-1,2,4-triazine-6-carboxamide], the IC50 was 10 to 100 nM (Btk (IC50)) and 10 to 100 nM under setting [1].

On to `CC(C)N1CCC(c2ccc(Nc3nc(N4CCC[C@@H](NC(=O)N(C)C)C4)cnc3C(N)=O)cc2)CC1` [Example 208, (R)-5-(3-(3,3-dimethylureido)piperidin-1-yl)-3-(4-(1-isopropylpiperidin-4-yl)phenylamino)pyrazine-2-carboxamide], for which the IC50 runs as follows: under setting [1], under 10 nM; (read-out: Btk (IC50)) under 10 nM.

In the case of `NC(=O)c1nnc(N2CCC[C@@H](NC(=O)C3CCN(C4CC4)CC3)C2)nc1Nc1ccc(C(=O)N2CCOCC2)cc1` [Example 32, (R)-3-(3-(1-cyclopropylpiperidine-4-carboxamido)piperidin-1-yl)-5-(4-(morpholine-4-carbonyl)phenylamino)-1,2,4-triazine-6-carboxamide], the half-inhibitory concentration (IC50) under setting [1] lay within 10 to 100 nM.

For the molecule `NC(=O)c1ncc(N2CCC[C@@H](NC(=O)c3ccc(F)cc3)C2)nc1Nc1ccc(C2CCN(C3CCCC3)CC2)cc1` [Example 320, (R)-3-(4-(1-cyclopentylpiperidin-4-yl)phenylamino)-5-(3-(4-fluorobenzamido)piperidin-1-yl)pyrazine-2-carboxamide], the IC50 by setting is: under setting [1], under 10 nM; (read-out: Btk (IC50)) under 10 nM.

Turning to `NC(=O)c1nnc(N2CCC[C@@H](NC(=O)N3CCCC3)C2)nc1Nc1ccc(C(=O)N2CCOCC2)cc1` [Example 35, (R)-5-(4-(morpholine-4-carbonyl)phenylamino)-3-(3-(pyrrolidine-1-carboxamido)piperidin-1-yl)-1,2,4-triazine-6-carboxamide], the IC50 under setting [1] lay in the range of 10 to 100 nM.

`CN(C(=O)N[C@@H]1CCCN(c2cnc(C(N)=O)c(Nc3ccc(C4(C#N)CC4)cc3)n2)C1)c1cc(Cl)cc(C(F)(F)F)c1` [Example 323, (R)-5-(3-(3-(3-chloro-5-(trifluoromethyl)phenyl)-3-methylureido)piperidin-1-yl)-3-(4-(1-cyanocyclopropyl)phenylamino)pyrazine-2-carboxamide]: the half-inhibitory concentration (IC50) reads like this: under setting [1], 100 to 1000 nM; (read-out: Btk (IC50)) 100 to 1000 nM.

For the molecule `CC(C)(C)OC(=O)N1CCC[C@@H](Nc2nnc(C(N)=O)c(Nc3ccc(C(=O)N4CCOCC4)cc3)n2)C1` [Example 60, (R)-tert-butyl 3-(6-carbamoyl-5-(4-(morpholine-4-carbonyl)phenylamino)-1,2,4-triazin-3-ylamino)piperidine-1-carboxylate], the IC50 under setting [1] lay in the range of 100 to 1000 nM.
